Structures can show the parent of a compound that is named as a salt.
What follows are compounds tested against T1, glucokinase (GK) (Homo sapiens, UniProt P35557) (assay: enzymatic glucokinase activity assay (ATP consumption, KinaseGlo luminescence)). Conditions: recombinant GK residues 12-465; 5 μM ATP, 5 mM Glucose; Kact = concentration that displays 50% of the maximal increase in GK activity; read-out: pKact.
T1 construct: I.D. No. 1 corresponds to residues 12-465 of glucokinase; made in house; host or cells: E. coli DH10b-T1r
T1 sequence (P35557 with tags, fused parts or gaps isoform P35557-2): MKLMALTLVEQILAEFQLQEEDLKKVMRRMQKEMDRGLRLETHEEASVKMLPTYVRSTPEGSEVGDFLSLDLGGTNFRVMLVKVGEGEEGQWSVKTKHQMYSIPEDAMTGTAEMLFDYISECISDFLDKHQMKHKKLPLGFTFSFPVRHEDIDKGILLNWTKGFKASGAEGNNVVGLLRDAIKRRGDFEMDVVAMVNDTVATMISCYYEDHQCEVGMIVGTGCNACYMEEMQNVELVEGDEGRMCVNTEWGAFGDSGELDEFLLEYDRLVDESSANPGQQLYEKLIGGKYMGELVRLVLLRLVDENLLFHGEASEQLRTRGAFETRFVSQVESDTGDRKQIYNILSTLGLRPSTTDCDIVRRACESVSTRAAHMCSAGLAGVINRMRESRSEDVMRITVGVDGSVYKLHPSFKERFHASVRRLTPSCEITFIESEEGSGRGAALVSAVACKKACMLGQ
Assay type: biochemical
Source text: The activity of compounds as glucokinase activators may be assayed in vitro, in vivo or in a cell line. Provided below is an enzymatic glucokinase activity assay.
Purified glucokinase may be obtained as follows. […] SEQ.
The expression of recombinant glucokinase protein may be carried out by transformation and growth of DH10b-T1r E. coli cells incorporating the (pFLAG-CTC) plasmid in LB media. Protein expression can be induced in this system by the addition of IPTG to the culture medium.
Recombinant protein may be isolated from cellular extracts by passage over Sepharose Q Fast Flow resin (Pharmacia). This partially purified GK extract may then be further purified by a second passage over Poros HQ 10 (Applied Biosystems). The purity of GK may be determined on denaturing SDS-PAGE gel. Purified GK may then be concentrated to a final concentration of 20.0 mg/ml. After flash freezing in liquid nitrogen, the proteins can be stored at −78° C. in a buffer containing 25 mM TRIS-HCl pH 7.6, 50 mM NaCl, and 0.5 mM TCEP.
The activation properties of compounds for GK may be determined using a black 384-well-plate format under the following reaction conditions: 25 mM Hepes pH 7.2, 25 mM NaCl, 10 mM MgCl2, 0.01% Brij35, 1 mM DTT, 5 μM ATP, 5 mM Glucose 2% DMSO. The amount of ATP consumed may be determined quantitatively by addition of equal volume of luciferase reagent (luciferase+beetle luciferin—KinaseGlo Luminescent Kinase Assay kit from Promega). The luminescence intensity may be measured by using the Analyst HT from LJL Biosystems.
The reaction mixture may then be incubated at room temperature for 60 min, and quenched and developed by addition of 10 μL of luciferase reagent. Luminescence intensities of the resulting reaction mixtures may be measured after a 10 min incubation at room temperature. The luminescence intensity may be measured by using the Analyst HT from LJL Biosystems.
pKact values may be calculated by non-linear curve fitting of the compound concentrations and luminescence intensities to a standard inhibition/activation equation.

Structure (SMILES)	EC50 [µM]
O=C(Nc1ncc(Cl)s1)[C@@H](CC1CCOCC1)n1ccc(S(=O)(=O)C2CC2)cc1=O [Example 29, (R)-N-(5-chlorothiazol-2-yl)-2-(4-(cyclopropylsulfonyl)-2-oxopyridin-1(2H)-yl)-3-(tetrahydro-2H-pyran-4-yl)propanamide]	> 15.8
O=C(Nc1ncc(Cl)s1)C(CC1CCCCC1)n1cc(Cl)c2sccc2c1=O (stereo not drawn) [Example 124, 2-(7-chloro-4-oxothieno[3,2-c]pyridin-5(4H)-yl)-N-(5-chlorothiazol-2-yl)-3-cyclohexylpropanamide]	> 15.8
Cc1cc(S(=O)(=O)C2CCCC2)cc(=O)n1C(CC1CCOCC1)C(=O)Nc1cnccn1 (stereo not drawn) [Example 177, 2-(4-(cyclopentylsulfonyl)-6-methyl-2-oxopyridin-1(2H)-yl)-N-(pyrazin-2-yl)-3-(tetrahydro-2H-pyran-4-yl)propanamide]	> 15.8
O=C(Nc1nc2cccnc2s1)[C@@H](CC1CCOCC1)n1ccc(S(=O)(=O)C2CC2)cc1=O [Example 51, (R)-2-(4-(cyclopropylsulfonyl)-2-oxopyridin-1(2H)-yl)-3-(tetrahydro-2H-pyran-4-yl)-N-(thiazolo[5,4-b]pyridin-2-yl)propanamide]	> 15.8
CNS(=O)(=O)c1ccc(-c2cc(C)n([C@@H](CC3CCCCC3)C(=O)Nc3nccs3)c(=O)c2)cc1 [Example 115, (S)-3-cyclohexyl-2-(6-methyl-4-(4-(N-methylsulfamoyl)phenyl)-2-oxopyridin-1(2H)-yl)-N-(thiazol-2-yl)propanamide]	> 15.8
Cc1cc(-c2ccccc2Cl)cc(=O)n1[C@@H](CC1CCCCC1)C(=O)Nc1nccs1 [Example 91, (S)-2-(4-(2-chlorophenyl)-6-methyl-2-oxopyridin-1(2H)-yl)-3-cyclohexyl-N-(thiazol-2-yl)propanamide]	> 15.8
Cc1cc(-c2ccc(F)cc2)cc(=O)n1[C@@H](CC1CCCCC1)C(=O)Nc1nccs1 [Example 105, (S)-3-cyclohexyl-2-(4-(4-fluorophenyl)-6-methyl-2-oxopyridin-1(2H)-yl)-N-(thiazol-2-yl)propanamide]	> 15.8
Cc1cc(O)cc(=O)n1C(CC1CCCCC1)C(=O)Nc1nccs1 (stereo not drawn) [Example 1, 3-cyclohexyl-2-(4-hydroxy-6-methyl-2-oxopyridin-1(2H)-yl)-N-(thiazol-2-yl)propanamide trifluoroacetic acid salt]	> 15.8
Cc1ccc(CC(C(=O)Nc2nccs2)n2c(C)cc(S(=O)(=O)C3CCCC3)cc2=O)cc1 (stereo not drawn) [Example 10, 2-(4-(cyclopentylsulfonyl)-6-methyl-2-oxopyridin-1(2H)-yl)-N-(thiazol-2-yl)-3-p-tolylpropanamide]	> 15.8
Cc1cc(S(=O)(=O)C2CCCC2)cc(=O)n1[C@H](CC1CCOCC1)C(=O)Nc1ccc(Cl)cn1 [Example 167, (R)-N-(5-chloropyridin-2-yl)-2-(4-(cyclopentylsulfonyl)-6-methyl-2-oxopyridin-1(2H)-yl)-3-(tetrahydro-2H-pyran-4-yl)propanamide]	> 15.8
O=C(Nc1ncc(Cl)s1)[C@H](CC1CCOCC1)n1ccc(S(=O)(=O)CC(F)(F)F)cc1=O [Example 149, (S)-N-(5-chlorothiazol-2-yl)-2-(2-oxo-4-(2,2,2-trifluoroethylsulfonyl)pyridin-1(2H)-yl)-3-(tetrahydro-2H-pyran-4-yl)propanamide]	1.58 to 15.8
Cc1cc(S(=O)(=O)C2CCCC2)cc(=O)n1[C@@H](CC1CCOCC1)C(=O)Nc1ccc(C(N)=O)cn1 [Example 182, (S)-6-(2-(4-(cyclopentylsulfonyl)-6-methyl-2-oxopyridin-1(2H)-yl)-3-(tetrahydro-2H-pyran-4-yl)propanamido)nicotinamide]	1.58 to 15.8
Cc1cc(S(=O)(=O)c2cccc(F)c2)cc(=O)n1[C@H](CC1CCOCC1)C(=O)Nc1ncc(F)s1 [Example 190, (R)-2-(4-(3-fluorophenylsulfonyl)-6-methyl-2-oxopyridin-1(2H)-yl)-N-(5-fluorothiazol-2-yl)-3-(tetrahydro-2H-pyran-4-yl)propanamide]	> 15.8

Second part, the compound after the results:

EC50 [µM]	Structure (SMILES)
1.58 to 15.8	COc1cccc(-c2cc(C)n([C@@H](CC3CCCCC3)C(=O)Nc3nccs3)c(=O)c2)c1 [Example 95, (S)-3-cyclohexyl-2-(4-(3-methoxyphenyl)-6-methyl-2-oxopyridin-1(2H)-yl)-N-(thiazol-2-yl)propanamide]
< 1.58	Cc1cc(S(=O)(=O)c2cc(C)n(C(CC3CCCCC3)C(=O)Nc3ncc(Cl)s3)c(=O)c2)c(C)o1 (stereo not drawn) [Example 83, N-(5-chlorothiazol-2-yl)-3-cyclohexyl-2-(4-(2,5-dimethylfuran-3-ylsulfonyl)-6-methyl-2-oxopyridin-1(2H)-yl)propanamide]
< 1.58	O=C(Nc1ncc(F)s1)C(CC1CCOCC1)n1ccc(S(=O)(=O)c2ccccn2)cc1=O (stereo not drawn) [Example 50, N-(5-fluorothiazol-2-yl)-2-(2-oxo-4-(pyridin-2-ylsulfonyl)pyridin-1(2H)-yl)-3-(tetrahydro-2H-pyran-4-yl)propanamide]
1.58 to 15.8	CCS(=O)(=O)c1cc(C)n(C(CC2CCCCC2)C(=O)Nc2nccs2)c(=O)c1 (stereo not drawn) [Example 4, 3-cyclohexyl-2-(4-(ethylsulfonyl)-6-methyl-2-oxopyridin-1(2H)-yl)-N-(thiazol-2-yl)propanamide trifluoroacetic acid salt]
< 1.58	COc1ccc2nc(NC(=O)[C@H](CC3CCCCC3)n3ccc(S(=O)(=O)C4CC4)cc3=O)sc2n1 [Example 76, (S)-3-cyclohexyl-2-(4-(cyclopropylsulfonyl)-2-oxopyridin-1(2H)-yl)-N-(5-methoxythiazolo[5,4-b]pyridin-2-yl)propanamide]
1.58 to 15.8	COCCC(C)(C)S(=O)(=O)c1ccn([C@@H](CC2CCOCC2)C(=O)Nc2nc3ccc(OC)nc3s2)c(=O)c1 [Example 121, (S)-2-(4-(4-methoxy-2-methylbutan-2-ylsulfonyl)-2-oxopyridin-1(2H)-yl)-N-(5-methoxythiazolo[5,4-b]pyridin-2-yl)-3-(tetrahydro-2H-pyran-4-yl)propanamide]
1.58 to 15.8	COc1ccc2nc(NC(=O)[C@H](CC3CCOCC3)n3ccc(S(=O)(=O)CCCO)cc3=O)sc2n1 [Example 72, (S)-2-(4-(3-hydroxypropylsulfonyl)-2-oxopyridin-1(2H)-yl)-N-(5-methoxythiazolo[5,4-b]pyridin-2-yl)-3-(tetrahydro-2H-pyran-4-yl)propanamide]
1.58 to 15.8	Cc1cc(-c2ncco2)cc(=O)n1C(CC1CCCCC1)C(=O)Nc1ncc(Cl)s1 (stereo not drawn) [Example 143, N-(5-chlorothiazol-2-yl)-3-cyclohexyl-2-(6-methyl-4-(oxazol-2-yl)-2-oxopyridin-1(2H)-yl)propanamide]
< 1.58	Cc1cc(S(=O)(=O)C2CC2)cc(=O)n1C(CC(C)(C)C)C(=O)Nc1ncc(Cl)s1 (stereo not drawn) [Example 25, N-(5-chlorothiazol-2-yl)-2-(4-(cyclopropylsulfonyl)-6-methyl-2-oxopyridin-1(2H)-yl)-4,4-dimethylpentanamide]
< 1.58	Cc1cc(S(=O)(=O)C2CCCC2)cc(=O)n1C(CC(C)C)C(=O)Nc1nccs1 (stereo not drawn) [Example 11, 2-(4-(cyclopentylsulfonyl)-6-methyl-2-oxopyridin-1(2H)-yl)-4-methyl-N-(thiazol-2-yl)pentanamide]
< 1.58	Cc1cc(S(=O)(=O)C2CC2)cc(=O)n1[C@@H](CC1CCCC1)C(=O)Nc1ncc(F)s1 [Example 162, (S)-3-cyclopentyl-2-(4-(cyclopropylsulfonyl)-6-methyl-2-oxopyridin-1(2H)-yl)-N-(5-fluorothiazol-2-yl)propanamide]

— patent US8163779B2, “Glucokinase activators” (Takeda San Diego, Inc., priority 2006, dated 2012)
